Test results from US20170226139A1, “CRYSTALLINE SALTS OF (Z)-O-OCTADEC-9-EN-1-YL O,O-DIHYDROGEN PHOSPHOROTHIOATE” (priority 2013, published 2017).
Read-outs that look alike come from different tables or passages of the source.

Key:
[1] = Characterization of scaled-up Rx100.L-Lysine salt (XRPD, DSC, TGA, 1H NMR, Karl Fischer, optical microscopy); format: physicochemical; details: scaled-up lot 1980-18-1
Description: The Rx100.L-Lysine salts were dried overnight under vacuum at 35° C. and then characterized by XRPD, DSC, TGA, ^1HNMR, Karl Fischer (KF), optical microscopy and moisture sorption assays.
Ratio of Rx-100 to L-Lysine in the salt was calculated based on the ^1HNMR integration ratio of set-A protons to set-B protons of the salt. Set-A protons are from Rx-100 part of the molecule and set-B protons are from L-Lysine part of the molecule. These two set of protons were selected because they are very well separated from rest of the protons in the ^1HNMR of the molecule. As shown in the molecular scheme in FIG. 39, set-A protons correspond to two olefinic protons of Rx100 and appear at […] in the ^1H NMR. In contrast, set-B protons correspond to methylene of lysine part and appear at […]. Comparison of ^1H NMR integration values for set-A and set-B protons indicates the ratio of Rx100 to lysine as 1:1.5.
The exhibition of birefringence observed by optical microscopy confirmed the crystallinity observed by XRPD

[2] = Gravimetric moisture sorption analysis, with XRPD afterwards; format: physicochemical; details: lot 1980-18-1; 95% RH; reversible
Description: Moisture sorption analysis of the Rx100.L-Lysine salt was performed by equilibrating the sample at 25° C. and 50% RH to simulate ambient lab conditions. Humidity then decreased to 0% RH, increased from 0 to 95% RH, reduced from 95 to 0% RH, increased from 0 to 95% RH and then decreased from 95 to 50% RH.

[3] = test system: Beagle dogs; assay: Single-dose subcutaneous toxicity in dogs; format: in vivo; details: 1 mL/kg of a 6-mg/mL concentration of L-lysine; same animals
Excerpt: One group of one male and one female Beagle dogs received single escalating subcutaneous doses of Rx100.Lysine at 10 and 1 (female)/1.52 (male) mg/kg. […] Parameters evaluated included clinical signs, body weight, and gross pathology. The male and female dog survived until scheduled necropsy on Day 15. Administration of Rx100 had no effect on body weight or general health of the animals. Noteworthy clinical observations were confined to skin and behavior effects. Both animals scratched at the dose site, likely contributing to observations of redness at the dose site. Swelling and a thickened/raised area were also observed during the observation period. Clinical observations were sufficient to warrant the injection of diphenhydramine. […] Following injection of the L-lysine component of the formulation at an independent site, redness, scratching, or swelling was not seen.

[4] = Short term (24 hour) slurry tests, XRPD of wet and dried solids; format: physicochemical; details: 24 hour slurry; Water; one cell for 25° C. and 50° C.; starting form A
Description: Second, short term slurry tests were performed. Rx100.L-Lysine salt was slurried for a minimum of 24 hours in 15 different solvent systems at two different temperatures (25 and 50° C.) in an attempt to provide information for crystallization experiments and design of polymorph screening experiments. A 48 position Chemglass reaction block was used for heating and stirring the slurries which were in 2 mL HPLC vials. After the due time, vials were centrifuged and the wet solids were used for X-ray diffraction. […]

[5] = Rx100 salt screening (solid formation, XRPD wet/dry, filterability, exposure to RH > 90%); details: for XRPD, wet: stage 2 round 2, Rx100 free acid + 1 eq base (label = base); for Filterability / Crystallinity / Polymorphic behavior: Rx100 salt formed with the named base; for Crystallinity / Polymorphic behavior: XRPD; for All solvents were evaporated to get a gel: label = base, nature/filterability of the solid
Description: We designed a complex and unconventional screening regime to screen for Rx100 crystalline salts. […] The screening regime is described as follows.
Rx100.FA in the form of a viscous liquid and eighteen counter ions were used as starting materials. These counter ions are listed and numbered in Table 4. The numbers will be used for grouping the resulting solids. The screening was performed in three stages.
Stage one (1) included screening 11 counter ions: sodium hydroxide, ammonium hydroxide, ethylenediamine, diethylamine, tromethamine (Tris), hydroxyethyl morpholine, benzathine, dimethylamino ethanol, L-Arginine, L-Lysine, L-Histidine. […] In stage 1, we performed three rounds of experiment.
In the first round of experiment, four (4) solvent systems, i.e., isopropyl alcohol (IPA), diethyl ether (DEE), IPA:water (a mixture at a volume ratio of 95:5) and tetrahydrofuran (THF), were used. Thus in this first round of screening, 44 individual base-acid reactions were conducted in 44 vials.
First, Rx100.FA and each of the bases were mixed in a vial. […] In each of the 44 vials, 211.1 μL of the prepared liquid, which was equivalent to about 35 mg of Rx100.FA, was first dispensed. Then, one equivalent (molar) of each of the 11 bases was dispensed in its corresponding vial. For example, the base sodium hydroxide was added to vials 1, 12, 23 and 34. Similarly, L-histidine was added to vials 11, 22, 33 and 44. Observations were recorded upon addition of the bases in to Rx100.FA.
Second, the solvent in each mixture was depleted. All vials containing the mixtures of Rx100.FA and each of the bases were left under moderate vacuum and nitrogen bleed at room temperature overnight to evaporate the solvent. The vials were then kept under full vacuum for about an hour to make sure the solvents (ethanol and water) are evaporated. Observations on formation of solid upon evaporation were recorded.
Third, solvents were added in each vial to induce solid formation. In each vial, a stir bar and one of the four selected solvents (each 5 volumes with respect to the Rx100.FA) were added. The vials were then capped. IPA was added to the first set of 11 vials (1-11), DEE added to the second set of 11 vials (12-22), IPA:water added to the third set of 11 vials (23-33), and THF added to the fourth set of 11 vials (34-44). The vials were left at room temperature while stirring for at least 5 hours. Observations were recorded.
The first set of XRPD analyses were recorded as “wet” samples. The solids were dried under vacuum for 1 hour and at room temperature followed by XRPD as “dry” sample. The dry solid was then exposed to relative humidity of more than 90% overnight followed by XRPD analysis. For XRPD naming, a number and a letter were used. The number refers to the counter ion and the letter refers to the chronological discovered XRPD pattern of that particular salt.
In the second round of experiment of stage one, another four (4) solvent systems, i.e., methanol (MeOH), tert-Butyl methyl ether (tBME), ethyl acetate and toluene, were used in the same 44 vials as used in the first round experiment. The solvents in all 44 vials from the first round were evaporated to dryness under vacuum and nitrogen bleed. The 4 new solvents were then added into the vials. Methanol was added to the first set of 11 vials (1-11), tBME added to the second set of 11 vials (12-22), Ethyl acetate added to the third set of 11 vials (23-33), and Toluene added to the fourth set of 11 vials (34-44). The same procedure as in the first round of experiment was followed for these new solvents and samples were taken for XRPD analysis.
In the third round of experiment, effect of base equivalence was assessed. […] After addition of the extra base, the previous solvent was evaporated and new solvents added.

[6] = test system: Control CHO; assay: Calcium-mobilization assay, untransfected Control CHO cells; format: cell-based, Chinese hamster; details: Control CHO (untransfected; endogenously expresses LPA1)
Description: (§1) We investigated structure-activity relationships across species, LPAR subtypes and between Rx100 and two known process impurities encountered in manufacture: Rx103 (‘E’ isomer) and Rx200 (oleyl phosphate and impurity, which can be an Rx100 degradant along with oleyl alcohol). Rx100, Rx103, Rx200 and native LPA were investigated at different human LPAR subtypes. In addition, the activity of these compounds was evaluated at LPA2 receptors from the rhesus, rat and mouse species. Human LPA1/2/3 subtypes were transfected into mouse embryonic fibroblasts (MEF) or rat hepatoma cells (RH7777)—both of which are normally non-responsive or null to LPA. Human LPA4 was transfected into Chinese hamster ovary (CHO) cells and LPA5 into the B103 neuroblastoma cell line. […] The B103 rat neuroblastoma cell line is endogenously nonresponsive to LPA but expresses heterologous LPA5 receptors well. […] LPAR activation elicits a G-protein-mediated transient rise in intracellular calcium level that is proportional to the concentration of LPA applied. The intracellular calcium level was quantified by the calcium-selective fluorescent indicator FURA-2 (e.g., increased intracellular calcium surge=increased fluorescence).

[7] = biological target: LPA2 receptors from the rat (Rattus norvegicus, UniProt A0ABK0LT65); assay: Calcium-mobilization assay (FURA-2), rat LPA2; format: cell-based; details: LPA2 DKO MEF, rat, mean
LPA2 receptors from the rat, sequence (A0ABK0LT65 1-348): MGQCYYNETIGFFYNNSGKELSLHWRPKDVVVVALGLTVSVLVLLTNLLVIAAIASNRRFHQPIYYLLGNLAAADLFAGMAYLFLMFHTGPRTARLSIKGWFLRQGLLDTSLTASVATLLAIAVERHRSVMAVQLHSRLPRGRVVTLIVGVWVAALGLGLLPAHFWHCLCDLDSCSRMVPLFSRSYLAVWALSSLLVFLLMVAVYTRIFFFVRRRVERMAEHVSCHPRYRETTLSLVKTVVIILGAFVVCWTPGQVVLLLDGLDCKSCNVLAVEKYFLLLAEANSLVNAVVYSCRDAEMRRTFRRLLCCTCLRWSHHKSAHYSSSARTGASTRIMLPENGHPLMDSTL
Description: as §1

[8] = biological target: T1, LPA2 receptors from the mouse (Mus musculus, UniProt Q9JL06); assay: Calcium-mobilization assay (FURA-2), mouse LPA2; format: cell-based; details: LPA2 DKO MEF, mouse, mean
T1 construct: expressed in transfected cells
T1 sequence (Q9JL06 whole entry): as the sequence (A0ABK0LT65 1-348) above, with V153A, V189A, F211Y, T310M, H316S, H321R, S324A, R327Q, H341R counted along it
Description: as §1

[9] = biological target: LPA2 receptors from the rhesus (Macaca mulatta, UniProt I2CXV3); assay: Calcium-mobilization assay (FURA-2), rhesus LPA2; format: cell-based; details: LPA2 DKO MEF, rhesus, mean
LPA2 receptors from the rhesus, sequence (I2CXV3 1-351): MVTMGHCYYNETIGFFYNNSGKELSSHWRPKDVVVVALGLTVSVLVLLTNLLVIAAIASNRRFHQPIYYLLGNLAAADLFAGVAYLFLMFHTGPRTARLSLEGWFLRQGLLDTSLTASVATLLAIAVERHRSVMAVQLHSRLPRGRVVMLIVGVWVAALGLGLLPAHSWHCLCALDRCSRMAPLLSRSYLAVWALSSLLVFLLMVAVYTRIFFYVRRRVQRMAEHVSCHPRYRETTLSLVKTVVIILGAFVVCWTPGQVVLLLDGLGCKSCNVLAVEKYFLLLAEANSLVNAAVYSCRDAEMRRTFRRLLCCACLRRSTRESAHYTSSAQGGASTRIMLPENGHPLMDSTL
Description: as §1

[10] = biological target: T2, Human LPA1 (Homo sapiens, UniProt Q92633); assay: Calcium-mobilization assay (FURA-2), human LPA1 transfected cells; format: cell-based; details: mean; for EC50: read-out: EC50
T2 construct: expressed in transfected cells; host or cells: mouse embryonic fibroblasts (MEF)
T2 sequence (Q92633 whole entry): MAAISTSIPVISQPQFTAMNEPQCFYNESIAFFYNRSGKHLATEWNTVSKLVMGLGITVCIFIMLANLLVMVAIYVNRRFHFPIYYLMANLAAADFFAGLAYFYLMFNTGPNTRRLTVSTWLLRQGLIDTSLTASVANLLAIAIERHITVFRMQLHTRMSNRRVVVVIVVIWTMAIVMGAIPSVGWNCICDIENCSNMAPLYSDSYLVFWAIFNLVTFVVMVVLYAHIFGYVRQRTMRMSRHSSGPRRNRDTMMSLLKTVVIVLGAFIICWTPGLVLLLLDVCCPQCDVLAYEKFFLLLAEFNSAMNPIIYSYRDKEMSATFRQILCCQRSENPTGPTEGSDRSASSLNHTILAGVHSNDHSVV
Description: as §1

For `CCCCCCCC/C=C\CCCCCCCCOP(O)(O)=S.NCCCC[C@H](N)C(=O)O` [Rx100. L-Lysine salt], the “KF [Wt % water]” value [1] was 1.8 Wt % water, the “Optical Microscopy” value [1] was “Birefringent” and the “TGA [% Wt. loss]” value [1] was 1.1 % Wt. loss. For the same compound, the “XRPD [Form]” value [1] was “Crystalline” and the “Moisture Sorption [Wt. % at 95% RH]” value [2] was 20.6 Wt. %.
With `NCCCC[C@H](N)C(=O)O` [L-lysine component, L-lysine] the “tolerability of subcutaneous injection” value [3] was “well tolerated”.
With `CCCCCCCC/C=C\CCCCCCCCOP(O)(O)=S.NCCCC[C@H](N)C(=O)O` [Rx100. L-Lysine Salt] the “Resulting Form” value [4] was “Dissolved”.
With Ca(OH)2 the “XRPD, wet” value ([5]; Ethyl acetate) was “Calcium” and the “XRPD, wet” value ([5]; IPA:water (1:1)) was “Calcium”.
With `CCCCCCCC/C=C\CCCCCCCCOP(O)(O)=S.NCCN` [Rx100 Ethylenediamine salt] the “Stability at high humidity” value [5] was “stable at high humidity”, the Filterability [5] was “filterable” and the Crystallinity [5] was “showed crystallinity”. The Polymorphic behavior [5] was “Creamy/oily on XRPD”, the Crystallinity ([5]; listed as Ethyldiamine) was “yes” and the Filterability ([5]; listed as Ethyldiamine) was “yes”.
For “lysophosphatidic acid [LPA, reference compound]”, the “Emax (% of LPA)” value [6] was 12%, the EC50 ([6]; read-out: EC50) was 605 nM and the “Emax (% of LPA)” value [7] was 100 % of LPA. The EC50 ([7]; read-out: EC50) was 1.7 nM, the “Emax (% of LPA)” value [8] was 100 % of LPA and the EC50 ([8]; read-out: EC50) was 4.4 nM. For the same compound, the “Emax (% of LPA)” value [9] was 100 % of LPA, the EC50 ([9]; read-out: EC50) was 1.3 nM and the “Emax (% of LPA)” value ([10]; LPA1 DKO MEF, human) was 100 % of LPA. For the same compound, the EC50 ([10]; LPA1 DKO MEF, human) was 354 nM, the “Emax (% of LPA)” value ([10]; LPA1 RH7777, human) was 100 % of LPA and the EC50 ([10]; LPA1 RH7777, human) was 28 nM.
With `NCCCC[C@@H](N)C(=O)O` [D-Lysine] the Filterability [5] was “no”, the Crystallinity [5] was “yes” and the Polymorphic behavior [5] was “Polymorphic on XRPD”. For the same compound, the “Solid upon evaporation (Y/N)” value ([5]; stage 3, 35 mg Rx100 free acid + base (label = base), 1.05 eq, L-lysine 2.00 eq) was “Gel”, the “All solvents were evaporated to get a gel” value ([5]; stage 3, 1.05 eq, L-lysine 2.00 eq, solvent MeOH:Water [9:1]) was “Greasy” and the “All solvents were evaporated to get a gel” value ([5]; stage 3, 1.05 eq, L-lysine 2.00 eq, solvent MeOH) was “Greasy”.
In the case of L-Arginine, the Filterability [5] is reported as “yes*”, the Crystallinity [5] is reported as “yes” and the Polymorphic behavior [5] is reported as “Greasy on XRPD”.
In the case of `CCCCCCCC/C=C\CCCCCCCCOP([O-])(O)=S.[Na+]` [Sodium], the Filterability [5] is reported as “no”, the Crystallinity [5] is reported as “yes” and the Polymorphic behavior [5] is reported as “Polymorphic on XRPD”.
